{"source": "patent US9012411B2", "about": "“Formulations from derivatives of curcumin, paclitaxel, and aspirin” (Organomed Corporation, priority 2009, dated 2015)", "type_in_all_cases": "cell-based", "key": {"[1]": {"system": "breast (SKBR3) cancer cell line", "test": "Cellular inhibition, Alamar Blue", "settings": "Homo sapiens, SK-BR-3", "procedure": "(§1) Assays were performed with 3 cancer cell lines: breast (SKBR3), pancreatic (Panc1), prostate (PC-3) and 1 normal (nor-cancer) cell line (WI-38). Compounds were delivered to the cells after dissolving in DMSO. Five dilutions per compound were tested on a total of 4 cell lines in 96 well plates. Cellular inhibition was measured using Alamar Blue. After addition of compound a 24 hour and 48 hour time point using fluorescent plate reader was taken. Data from plate reader was analyzed in the following way: % inhibition bar graphs, % inhibition line graphs and IC50 growth inhibition values. In Tables 7-14, IC50 units are Molar (M)."}, "[2]": {"system": "normal (non-cancer) cell line WI-38", "test": "Cellular inhibition, Alamar Blue", "settings": "for IC50: Homo sapiens, WI-38", "procedure": "as §1"}, "[3]": {"system": "pancreatic (Panc1) cancer cell line", "test": "Cellular inhibition, Alamar Blue", "settings": "Homo sapiens, PANC-1", "procedure": "as §1"}, "[4]": {"system": "prostate (PC-3) cancer cell line", "test": "Cellular inhibition, Alamar Blue", "procedure": "as §1"}, "PANC-1 cells [5]": {"system": "PANC-1 cells", "test": "GI50 (50% inhibition of cell growth), MTT assay, 72 hours", "settings": "Homo sapiens, PANC-1, 72 h", "procedure": "(§2) The cells were plated onto a 96 well plate and treated with different concentrations of the compounds from 1 ng/ml to 10 ug/ml for 72 hours followed by MTT assay.\n(§3) The cells were plated onto a 96 well plate and treated with different concentrations of the compounds from 0.04 ng/ml to 400 ng/ml for 72 hours followed by MTT assay."}, "PC3 cells [6]": {"system": "PC3 cells", "test": "GI50 (50% inhibition of cell growth), MTT assay, 72 hours", "settings": "Homo sapiens, PC-3, 72 h, PC3, 72 hours", "procedure": "as §2, §3"}, "SK-BR-3 cells [7]": {"system": "SK-BR-3 cells", "test": "GI50 (50% inhibition of cell growth), MTT assay, 72 hours", "settings": "Homo sapiens, SK-BR-3, 72 h", "procedure": "as §2, §3"}, "WI38 normal cell line [8]": {"system": "WI38 normal cell line", "test": "GI50 (50% inhibition of cell growth), MTT assay, 72 hours", "settings": "Homo sapiens, WI-38, 72 h, WI38, 72 hours", "procedure": "as §2, §3"}, "PANC-1 cells [9]": {"system": "PANC-1 cells", "test": "EC50 cytotoxicity, MTT assay, 48 hours", "settings": "Homo sapiens; PANC-1, 48 hours, 0.04 ng/ml to 400 ng/ml", "procedure": "(§4) Cytotoxicity of the compounds on three different cancer cell lines and one normal cell line was tested. Four human cell lines including both cancer cell lines (SK-BR-3, PANC-1, PC3) and normal cell line (W138) were initially employed. The cells (20,000 cells/well) were plated onto a 96-well plate for 24 hours before treatment. The compounds were diluted in the medium and added to the cells at different concentrations for additional 48 hours from 0.04 ng/ml to 400 ng/ml. MTT assay was then performed."}, "PC3 cells [10]": {"system": "PC3 cells", "test": "EC50 cytotoxicity, MTT assay, 48 hours", "settings": "Homo sapiens, PC-3; PC3, 48 hours, 0.04 ng/ml to 400 ng/ml", "procedure": "as §4"}, "SK-BR-3 cells [11]": {"system": "SK-BR-3 cells", "test": "EC50 cytotoxicity, MTT assay, 48 hours", "settings": "Homo sapiens; SK-BR-3, 48 hours, 0.04 ng/ml to 400 ng/ml", "procedure": "as §4"}, "WI38 normal cell line [12]": {"system": "WI38 normal cell line", "test": "EC50 cytotoxicity, MTT assay, 48 hours", "settings": "Homo sapiens, WI-38; WI38, 48 hours, 0.04 ng/ml to 400 ng/ml", "procedure": "as §4"}, "[13]": {"settings": "0.04 ng/ml to 400 ng/ml (Example 14)"}, "[14]": {"settings": "1 ng/ml to 10 ug/ml (Example 8)"}}}
{"compound": "CC(=O)O[C@H]1C(=O)[C@@]2(C)[C@H]([C@H](OC(=O)c3ccccc3)[C@]3(O)C[C@H](OC(=O)[C@H](O)[C@@H](NC(=O)c4ccccc4)c4ccccc4)C(C)=C1C3(C)C)[C@]1(OC(C)=O)CO[C@@H]1C[C@@H]2O", "note": "[Taxol, Paclitaxel]", "values": [{"measurement": "IC50", "setting": "[1]; SKBR3, 24 hours", "value": 694, "unit": "nM"}, {"measurement": "IC50", "setting": "[1]; SKBR3, 48 hours", "value": 3230, "unit": "nM"}, {"measurement": "Effect on normal cell growth (WI-38) (in words)", "setting": "[2]; 48 hours", "value": "some effect on normal cell growth"}, {"measurement": "IC50", "setting": "[2]; WI38, 24 hours", "value": 19.1, "unit": "µM"}, {"measurement": "IC50", "setting": "[2]; WI38, 48 hours", "value": 80, "unit": "µM"}, {"measurement": "IC50", "setting": "[3]; PANC1, 24 hours", "value": 153, "unit": "nM"}, {"measurement": "IC50", "setting": "[3]; PANC1, 48 hours", "value": 180, "unit": "nM"}, {"measurement": "IC50", "setting": "[4]; PC3, 24 hours", "value": 58.1, "unit": "nM"}, {"measurement": "IC50", "setting": "[4]; PC3, 48 hours", "value": 80.3, "unit": "nM"}, {"measurement": "inhibition", "setting": "[4]; PC-3, 48 hours, all concentrations", "value": "~60", "unit": "%"}, {"measurement": "GI50", "setting": "PANC-1 cells [5]; [13]", "value": 5.46, "unit": "ng/mL"}, {"measurement": "GI50", "setting": "PANC-1 cells [5]; [14]", "value": 1.8, "unit": "ng/mL"}, {"measurement": "GI50", "setting": "PC3 cells [6]; [13]", "value": 0.05, "unit": "ng/mL"}, {"measurement": "GI50", "setting": "PC3 cells [6]; [14]", "value": 258, "unit": "ng/mL"}, {"measurement": "GI50", "setting": "SK-BR-3 cells [7]; [13]", "value": 0.78, "unit": "ng/mL"}, {"measurement": "GI50", "setting": "SK-BR-3 cells [7]; [14]", "value": 1.15, "unit": "ng/mL"}, {"measurement": "GI50", "setting": "WI38 normal cell line [8]; [13]", "value": 0.0056, "unit": "µg/mL"}, {"measurement": "GI50", "setting": "WI38 normal cell line [8]; [14]", "value": 0.514, "unit": "µg/mL"}, {"measurement": "EC50", "setting": "PANC-1 cells [9]", "value": 0.0328, "unit": "µg/mL"}, {"measurement": "EC50", "setting": "PC3 cells [10]", "value": 8.51, "unit": "ng/mL"}, {"measurement": "EC50", "setting": "SK-BR-3 cells [11]", "value": 0.0361, "unit": "µg/mL"}, {"measurement": "EC50", "setting": "WI38 normal cell line [12]", "value": 0.0379, "unit": "µg/mL"}]}
